One data set deals with AKR1B10 (Homo sapiens, UniProt O60218). Nature of the data set: Bioproduct production in A549 WT and AKR1B10 KO cells, headspace GC-MS. The conditions noted are these: for substrate of AKR1B10 (converted to 1-nonanol / trans-2-hexenol by this enzyme): WT versus AKR1B10 KO A549 cells. The source says:
We have tested conversion of these substrates to the respective bioproduct 1-nonanol, trans-2-hexenol, hexenol, benzyl alcohol, and nerol, in a cancer cell line overexpressing AKR1B10.
A549 lung cancer cells were targeted with a CRISP/Cas system to ablate the protein expression of AKR1B10. Specific sgRNA for the AKR1B10 gene were co-transfected in cells with SpCas9 using ribonucleoproteins (RNPs). Clonal cells were generated by using limiting dilution. […] Resulting protein extract for WT and AKR1B10 KO cells were analysed using the Jess system and samples were probed with an AKR1B10 specific antibody, and with an antibody against α-Tubulin as independent reporter.
5×10^4 cells/mL of WT or 3 AKR1B10 KO clone cells were seeded in 24-well plates using cell culture media and let adhere and proliferate for 48 hours to confluence. Then, they were treated with 30 μM nonanal or 10 µM trans-2-hexenal. […] Headspace analysis was performed by using Centri, coupled with a GC-MS Orbi-trap system. Peak identification of nonanal, 1-nonanol, trans-2-hexenal, and trans-2-hexenol, was performed by comparing the peak against reference standards.

A short description of data set [1]: Blood levels of bioproducts in NASH rat model (CDHFD vs normal diet). The following applies: for time after administration at which blood concentration increases / blood levels, CDHFD compared to ND rats: after oral 2-butanol 440 mg/Kg; for blood levels, CDHFD compared to ND rats: at 8 and 12 hours (480, 720 minutes).
Description: Blood samples were analysed using gas chromatography mass spectrometry (GC/-MS) or HPLC to measure metabolitic bioproducts benzoic acid, 3-hydroxy-2-butanone, 2-3-butanediol, and 2,3-pentanediol.
A total of 18 Wistar Han rats were acclimatized for 6 days. After that time, 9 rats remained on a normal diet, while 9 rats were switched to a choline deficient high fat diet (CDHFD) (L-Amino Acid Diet With 45 kcal % Fat With 0.1% Methionine, No Added Choline and 1% Cholesterol) (Research Diet, catalog #A16092003, https://researchdiets.com/en/formulas/a16092003). Rats had ad libitum access to food and water at all times unless differently specified. Body weight was measured every week.
Following 10 weeks of diet treatment, rats were randomised into groups each group composed of 3 healthy and 3 NASH rats for dosing with the different compounds.
Each group received an emulsion containing the compounds reported in table 1 at the indicated amount.
Each compound preparation was administered as an emulsion containing 15% Tween80 diluted in water to deliver the target amount in 5 mL/kg body weight. The emulsion was administered by oral gavage after the rats were fasted for 16 hours.
Blood samples were collected pre (0 min) and post compound administration at the following timepoints: 5 min, 15 min, 30 min, 1 h, 1.5 h, 2 h, 4 h, 8 h, 12 h, and 24 h.
At each time point, ˜200 μL blood samples were collected into EDTA-K2 tubes and placed on wet ice until centrifugation. Plasma was generated, from the blood samples, by centrifugation at approximately 4° C., 3,200 g for 5 min.
A total of 100 μL of plasma was collected respectively and transferred into Eppendorf tubes. Of these, 95 μL of plasma were spiked with 400 μL of internal standard in acetonitrile, vortexed for 30s and centrifuged for 15 min at 3220 g. A total of 100 μL of supernatant was used for compounds quantification, unless differently specified.
Response for each compound was normalized by the response of the internal standard, and absolute quantification was performed against a calibration curve.
A short description of data set [2]: Nonanal and 2-butanol washout in breath of volunteers. The conditions noted are these: three volunteers; swallowed emulsion with 500 mg of Nonanal and 100 mg of 2-butanol; GC-MS. As for the experimental part:
An analysis of nonanal and 2-butanol washout of breath samples collected from three volunteers investigated before and after the intake of 500 mg of Nonanal and 100 mg of 2-butanol was performed. Three breath collections have been performed per each volunteer.
Three Volunteers participated in this trial for 3 times. They swallowed an emulsion containing 500 mg of Nonanal and 100 mg of 2-butanol and their breath was collected at 8 different time points before and after the emulsion intake using the ReCIVA, a face mask containing tubes for breath collection, and storage of exhaled VOCs.
Appearance on breath and conversion of the probes to their bioproducts was measured using gas-chromatography mass-spectrometry (GC-MS).

Data set [3] concerns healthy human hepatocytes. Nature of the data set: Metabolism of VOCs by healthy human hepatocytes (organ-on-a-chip). On the procedure:
Organ-on-a chip samples were used.
Organ-on-a chip is a three-dimensional hepatocytes culturing system developed by a company called CN-Bio Ltd. Aliquots of media spiked with VOCs and collected at different time points are analysed using CENTRI-GC-MS a system for VOCs headspace detection and quantification. The experiment contained samples from healthy hepatocytes in the culture medium exposed to 2-butanol, nonanal at one of the concentrations: 50, 10, 2 and 0 ng/μL, and the control which is the culture medium without hepatocytes containing 2-butanol, and nonanal of the same concentration.
System suitability test (SST) and […] standards check (0, 2, 10 and 50 ng/μL), were run in duplicate at the beginning, in the middle and at the end of the sequence to mitigate against the risk of an instrumental deviation.
Empty tubes were also run at the beginning, in the middle and at the end of the sequence to mitigate against the risk of a carryover 0.5 μL Internal standards (1000 ng/μL) were spiked into each sample prior to analysis.

Data set [4] has as its system healthy and NASH hepatocytes. The following applies: for level of probe in presence of NASH and healthy hepatocytes compared with absence of hepatocytes: 50 ng/μL in culture medium, aliquots 0.5 to 24 hours. The source says:
Organ-on-a-chip containing healthy human hepatocytes and human hepatocytes treated to generate a model of a healthy or NASH liver disease were used in the following experiments. The Organ-on-a-chip containing healthy human hepatocytes are similar to the Organ-on-a-chip described above, but the experiment also included a model of NASH hepatocytes. The latter are obtained by treating healthy hepatocytes with Kupfer cells and hepatocytes stellate cells.
Primary human hepatocytes (PHHs), Kupffers cells (KCs), and hepatic stellate cells (HSCs) were seeded onto CN-Bio's PhysioMimix LC12 MPS culture plates at 6×10^5 cells for PHHs and 6×10^4 cells for HKCs and HSCs (necessary to induce the NASH phenotype) per well in CN-Bio's seeding medium. Throughout the experiment the cells were maintained at a medium flow rate of 1 μl/s. At days 4, 6, 8, 11, and 12 post seeding, medium aliquots were taken to measure LDH and albumin to assess cell health. At day 13 (24 hours post VOCs treatment), final medium collection for analysis was performed. Scaffolds were fixed in 4% formaldehyde for Oil Red O staining to assess lipid accumulation.
Primary hepatocytes were treated with 2-butanol and nonanal diluted in the hepatocytes culture medium at a concentration of 50 ng/μL. Aliquots of the culture medium were collected at 0.5, 1, 2, 4, 6, and 24 hours. The remaining medium-compound mix that was not added to the cells was considered as 0 timepoint reference. Headspace analysis was performed by using Centri, an automated system used to collect VOCs in the headspace, coupled with a GC-MS Orbi-trap system, a high-resolution mass spectrometer for detection and quantification of VOCs. Peak identification of 2-butanol, 2-butanone, nonanal, and 1-nonanol was performed by comparing the peak against a reference standard. A p-value<0.05 was considered as statistically significant.

The mark [5] stands for this setting: after oral 2-pentanone 160 mg/Kg.
Where [6] appears, read: hepatocytes treated with 2-butanol and nonanal at 50 ng/μL.

These results are taken from patent publication US20250306034A1, “Detection of Liver Disease” (Owlstone Medical Limited, priority 2022, published 2025).

AKR1B10, sequence (O60218 whole entry): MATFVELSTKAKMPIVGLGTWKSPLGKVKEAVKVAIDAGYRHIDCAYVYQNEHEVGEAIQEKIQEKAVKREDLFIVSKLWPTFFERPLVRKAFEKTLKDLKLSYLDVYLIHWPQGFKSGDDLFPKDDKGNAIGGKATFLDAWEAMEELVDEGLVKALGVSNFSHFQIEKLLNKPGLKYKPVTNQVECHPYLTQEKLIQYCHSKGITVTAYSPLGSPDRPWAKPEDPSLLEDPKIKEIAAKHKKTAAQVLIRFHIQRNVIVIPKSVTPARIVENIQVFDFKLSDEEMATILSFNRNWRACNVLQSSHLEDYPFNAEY

Consider `CCCCCCCCCO` [1-nonanol], for which the “production of 1-nonanol, levels in WT compared to AKR1B10 KO cells” value on AKR1B10 (human, 30 μM) was 3 times higher.
Regarding `CC(O)C(C)O` (centres unmarked) [2,3-butanediol], in data set [1], the “time after administration at which blood concentration increases” value turned out to be 240 min and the “blood levels, CDHFD compared to ND rats” value is “higher levels in CDHFD compared to ND rats”.
Regarding `CCC(O)C(C)O` (centres unmarked) [2,3-pentanediol], in data set [1] (setting [5]), the “blood levels, CDHFD rats compared to ND rats” value is recorded as “higher in CDHFD rats compared to ND rats after 4 hours” and the “time after administration after which blood levels increased” value came to 1 h.
Regarding `CCC(C)O` (centres unmarked) [2-butanol], the “detection in breath samples after emulsion intake” value in data set [2] is on record as “detected”. Moreover, the “level of probe over 24 hours in media alone and media with hepatocytes” value in data set [3] (50, 10, 2 and 0 ng/μL, healthy hepatocytes, headspace GC-MS) is “a decrease both in media alone and media with hepatocytes”. The “level of probe in presence of NASH and healthy hepatocytes compared with absence of hepatocytes” value in data set [4] is listed as “more marked reduction at 24 h”.
Turning to `CCC(C)=O` [2-butanone], in data set [3] (hepatocytes exposed to nonanal and 2-butanol, 50, 10, 2 and 0 ng/μL), the “level of bioproduct over time in media with hepatocytes” value is “a spike and subsequent decrease”. In data set [4] (setting [6]), the “area of the bioproduct peak, NASH versus healthy hepatocytes” value was “the area under the peak for healthy is larger than for NASH” and the “production of bioproduct, NASH versus healthy hepatocytes” value is listed as “Healthy hepatocytes showed higher production of 2-butanone at 6 hours”.
For `CC(=O)C(C)O` (centres unmarked) [3-hydroxy-2-butanone], in data set [1], the “time after administration at which blood concentration increases” value amounted to 240 min and the “blood levels, CDHFD compared to ND rats” value is listed as “higher levels in CDHFD compared to ND rats”.
`O=Cc1ccccc1` [benzylaldehyde]: the “conversion of the substrate to the respective bioproduct” value (from here on “conversion of the substrate”) on AKR1B10 (cancer cell line overexpressing AKR1B10, substrates added to the culture media) is listed as “conversion to the bioproducts in a timeframe of 6 hours”.
On to `CC(C)=CCCC(C)=CC=O` [citral], for which the “conversion of the substrate” value at AKR1B10 (human, 6 h) is “conversion to the bioproducts in a timeframe of 6 hours”.
The same measure, in the same setting: the value for `CCCCCC=O` [hexanal] was “conversion to the bioproducts in a timeframe of 6 hours”.
Turning to `CCCCCCCCC=O` [nonanal], at AKR1B10, the “bioproduct generation after ablation of AKR1B10 or treatment of the cells with AKRs inhibitors” value is “reduced or absent bioproduct generation” and the “substrate of AKR1B10 (converted to 1-nonanol / trans-2-hexenol by this enzyme)” value is “substrates for AKR1B10”. The “level of nonanal in medium added to WT or AKR1B10 KO cell lines, versus medium without cells” value on AKR1B10 (human, 3 h, 30 μM) is “increased reduction over 3 hours”. Besides, the “conversion of the substrate” value on AKR1B10 (human, 6 h) is on record as “conversion to the bioproducts in a timeframe of 6 hours”. Also, the “level of probe in presence of NASH and healthy hepatocytes compared with absence of hepatocytes” value in data set [4] is on record as “more marked reduction”.
Consider `CCC/C=C/C=O` [trans-2-hexenal], for which, on AKR1B10, the “bioproduct generation after ablation of AKR1B10 or treatment of the cells with AKRs inhibitors” value is “reduced or absent bioproduct generation” and the “substrate of AKR1B10 (converted to 1-nonanol / trans-2-hexenol by this enzyme)” value is on record as “substrates for AKR1B10”. Besides, the “production of bioproduct of trans-2-hexenal, levels in WT compared to AKR1B10 KO cells” value at AKR1B10 (human, 10 μM) is given as 10 times higher. In addition, at AKR1B10 (human, 3 h, 10 μM), the “level of trans-2-hexenal in medium added to WT or AKR1B10 KO cell lines, versus medium without cells” value is reported as “increased reduction over 3 hours”. The “conversion of the substrate” value at AKR1B10 (human, 6 h) was “conversion to the bioproducts in a timeframe of 6 hours”.
